Values of other authors in patent US9289392B2, “Extended release pharmaceutical composition of entacapone or salts thereof” (Wockhardt Ltd., priority 2008, dated 2016).

N[C@@H](Cc1ccc(O)c(O)c1)C(=O)O [Levodopa, (−)-L-α-amino-β-(3,4-dihydroxybenzene) propanoic acid]
solubility in water: slightly soluble

C[C@@](Cc1ccc(O)c(O)c1)(NN)C(=O)O [Carbidopa]
solubility in water: slightly soluble
